# From publication PMC5065625, “Structure-mechanism-based engineering of chemical regulators targeting distinct pathological factors in Alzheimer's disease” (Nature Communications, 2016)
# Key:
# [1] = Parallel artificial membrane permeability assay adapted for BBB (PAMPA-BBB); assay type: in vitro ADME; settings: 25 μM, pH 7.4, 4 h
# Protocol: PAMPA-BBB experiments were conducted using the PAMPA Explorer kit (pION Inc., Billerica, MA, USA) using previously reported protocols. Compounds (25 μM, 200 μl) in pH 7.4 Prisma HT buffer (pION) were added to the wells of a donor plate (number of replicates=12). The polyvinylidene fluoride (PVDF, […]) filter membrane on the acceptor plate was coated with BBB-1 lipid formulation (5 μl, pION). The acceptor plate was placed on top of the donor plate. Brain sink buffer (BSB, 200 μl, pION) was added to each well of the acceptor plate and was incubated for 4 h at ambient temperature without stirring. UV–vis spectra of the solutions in the reference, acceptor, and donor plates were measured using a microplate reader. The PAMPA Explorer software v. 3.5 (pION) was used to calculate the −logPe values for compounds. CNS±designations were assigned by comparison with compounds that were identified in previous reports.
# [2] = Stability in solution (UV–vis, ESI–MS) in the presence of Cu(II); assay type: physicochemical; settings: Cu 25 μM; for half-life at 50 μM: HEPES buffer with CuCl2, pH 7.4, compound 50 μM, read-out: t1/2, + Cu(II); for half-life at 50 μM / k, + Cu(II) (rate of decay of the absorbance peak) / t1/2, + Cu(II): HEPES pH 7.4, 37 °C
# Protocol: The stability of 1–4 (50 μM) in the absence and presence of CuCl2 (25 μM) was monitored every 10 min using UV–vis for 5 h in buffer ([…], pH 7.4, […]; 1% DMSO) at 37 °C. The resulting spectra were corrected for baseline shifts at 800 nm and the half-life and rate of decay of the absorbance at 250, 385 and 400 nm for 4, [Cu(II)+1], and [Cu(II)+3], respectively, was calculated using the first-order exponential decay function as implemented in Origin 9.1 (OrginLab Corp., Northampton, MA, USA). Additionally, the species present were identified using ESI–MS. Samples containing 1–4 (50 μM) with or without CuCl2 (25 μM) were incubated in ddH2O (1% DMSO) at 37 °C for the selected time points before being freshly frozen using liquid nitrogen and stored at −80 °C until they were thawed immediately before measurement.
# Cu(II)–Aβ40/Aβ42 = target: T1, Cu(II)–Aβ40/Aβ42 (Homo sapiens, UniProt P05067); test: nESI-MS / IM–MS interaction studies with Cu(II); assay type: binding; settings: Aβ40 18 μM, copper(II) acetate 40 μM, compound 120 μM, pH 7.5, 37 °C, 30 min
# T1 construct: Aβ40 or Aβ42 was dissolved in ammonium hydroxide
# Protocol: All IM–MS experiments were carried out on a Synapt G2 (Waters, Milford, MA)[27][28][29][58]. Samples were ionized using a nano-electrospray source operated in positive ion mode. MS instrumentation was operated at a backing pressure of 2.7 mbar and sample cone voltage of 40 V. The m/z scale was calibrated using 20 mg ml^−1 aqueous cesium iodide. For peptide-metal ligation studies, the aliquots of Aβ peptides (final concentration 18 μM) were sonicated for 5 s before pre-incubation with or without a source of Cu(II) (copper(II) acetate) at 37 °C for 10 min. […] Solution conditions were 100 mM ammonium acetate (pH 7.5) with 1% v/v DMSO. Covalent binding studies with 4 were performed by incubating aliquots of Aβ with the ligand at a ratio of 1:0, 1:5 and 1:25 in water for either 24 h or a week at 25 °C. After incubation the samples were lyophilized for storage until analysis. Immediately before analysis samples were reconstituted to 50 μM peptide concentration in 1,1,1,3,3,3-hexafluoro-2-propanol, sonicated and diluted further to 25 μM for data acquisition. Accurate mass values for ligand-bound complexes were calculated using the monoisotopic peak difference between apo and ligated states with errors reported as a function of two times the s.d. collision cross section (CCS) measurements were externally calibrated using a database of known values in helium, using values for proteins that bracket the likely CCS and ion mobility values of the unknown ions[58][59]. CCS values are the average of six replicates with errors reported as the least square product. This least square analysis combines inherent calibrant error from drift tube measurements (3%)[59]. calibration curve error, and two times the replicate s.d. error. All other conditions are consistent with previously published methods.
# Aβ (100 μM) was incubated with 4 (500 μM) in 100 mM ammonium acetate, pH 7.5, without and with the addition of CuCl2 (100 μM) for 1 h at 37 °C without agitation. Before injection into the mass spectrometer, the resulting Aβ was diluted by 10-fold. ESI–MS analysis was performed using a Synapt G2-Si quadrupole time-of-flight mass spectrometer (Waters, Manchester, UK) equipped with electrospray ionization source. The capillary voltage, sampling cone voltage, and source temperature were set to 2.8 kV, 70 V, and 60 °C, respectively. The backing pressure was adjusted to 3.2 mbar.
# T1 sequence (P05067 672-711): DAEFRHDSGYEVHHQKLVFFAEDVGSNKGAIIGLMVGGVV
smiles,measurement,setting,value
"Nc1ccc(NCc2ccccn2)cc1 [compound 1, N^1-(pyridin-2-ylmethyl)benzene-1,4-diamine]",−logPe,[1],5.0(1)
same,half-life at 50 μM,[2],8 ± 3 min
same,"k, + Cu(II) (rate of decay of the absorbance peak)",[2]; compound 50 μM,0.09 ± 0.03 min⁻¹
same,"t1/2, + Cu(II)",[2]; compound 50 μM,~5 min
same,Interaction with Aβ in the presence of Cu(II),Cu(II)–Aβ40/Aβ42,Cu–ligand-dependent signals corresponding to a mass 89 Da lighter than the apo Aβ40/Aβ42
"CN(C)c1ccc(NCc2ccc[nH]2)cc1 [compound 4, N^1-((1H-pyrrol-2-yl)methyl)-N^4,N^4-dimethylbenzene-1,4-diamine]",−logPe,[1],4.9(0)
same,half-life at 50 μM,[2],< 1 min
same,"k, + Cu(II) (rate of decay of the absorbance peak)",[2]; compound 50 μM,too rapidly to measure
same,Interaction with Aβ in the presence of Cu(II),Cu(II)–Aβ40/Aβ42,not shown to bind to Aβ40
"COc1cc(NCc2ccccn2)cc(OC)c1 [compound 2, 3,5-dimethoxy-N-(pyridin-2-ylmethyl)aniline]",−logPe,[1],4.2(8)
same,Stability of the complex with Cu(II),"[2]; compound 50 μM, 5 h",without any further transformations over the course of 5 h
same,"k, + Cu(II) (rate of decay of the absorbance peak)",[2]; compound 50 μM,too slow to accurately measure the rate
same,"t1/2, + Cu(II)",[2]; compound 50 μM,No noticeable spectral changes were observed over 5 h
same,Interaction with Aβ in the presence of Cu(II),Cu(II)–Aβ40/Aβ42,stable ternary complexes
"CN(C)c1ccc(NCc2ccc3ccccc3n2)cc1 [compound 3, N^1,N^1-dimethyl-N^4-(quinolin-2-ylmethyl)benzene-1,4-diamine]",−logPe,[1],4.2(2)
same,half-life at 50 μM,[2],53 ± 3 min
same,"k, + Cu(II) (rate of decay of the absorbance peak)",[2]; compound 50 μM,0.013 ± 0.001 min⁻¹
same,"t1/2, + Cu(II)",[2]; compound 50 μM,~50 min
same,Interaction with Aβ in the presence of Cu(II),Cu(II)–Aβ40/Aβ42,Cu–ligand-dependent signals corresponding to a mass 89 Da lighter than the apo Aβ40/Aβ42
